≈ marks a conversion by molar mass, not a printed value. Like-named read-outs stand apart in the source and are kept apart here. Blank lines part the entries; values can stand above or below the compound they belong to. Where a SMILES comes first, the peptide text is derived from it.
What was measured:
Calu-3 = experiment: Cytotoxicity assay; assay type: cell-based; conditions: value printed in parentheses
HEK293 = experiment: Cytotoxicity assay (XTT); assay type: cell-based, human; conditions: for Toxicity HEK293: unit not given; for Toxicity HEK293 (EC50), Peptide concentration: value printed in parentheses
Experimental: (§1) Cytotoxicity assay. HeLa and HEK293 cell lines were purchased from ECACC and cultured in Eagle's Minimum Essential Media (EMEM) containing glutamine, supplemented with 10% FBS and 1× non-essential amino acids (NEAA) at 37° C., 10% CO2. Cytotoxicity was measured by incubating starter cultures of cells for 24 hours in a 96 well plate, gently removing the supernatant and replacing it with dilutions of peptides and controls, incubating for a further 24 hours and then staining of the cells with the second generation tetrazolium dye, XTT. […]

A549 = experiment: Cytotoxicity assay; assay type: cell-based; conditions: value printed in parentheses
five S. aureus strains = conditions: Mueller Hinton Broth
Experimental: (§2) Two broth mediums were used, Mueller Hinton Broth and RPMI 1640+5% fetal bovine serum. Test substances were evaluated in 11-point titrations and performed in duplicate.
(§3) The direct colony suspension method was used to prepare inoculated broth. Isolated colonies were taken from an 18-24 h culture plate. Optical density measurements (OD620nm) were used to estimate the bacterial density. […] The stock solutions were diluted by 2-fold serial titrations with their respective vehicles for a total of 11 concentrations.
(§4) A 4 μL aliquot of each dilution was added to 196 μL of broth medium seeded with the organism in wells of a sterilized 96 well polypropylene plate (Nunc™ 249949) using aluminum foil as cover. The final bacterial count was 2 to 8×10^5 CFU/mL. […] The final test article concentration range was 32 to 0.0313 μg/mL.
(§5) Each test substance dilution was evaluated in duplicate on one test occasion. […] Plates were incubated at 35-37° C. for 18 h. The test plates were visually examined and each well was visually scored for growth or complete inhibition of growth. The MIC value was recorded.

[1] = tested on: EMR Staphylococcus aureus-16 (EMRSA-16); assay type: cell-based; conditions: EMRSA16; for MIC on initial panels: medium and unit not given, in µg/mL; for MIC: untitled table, medium/unit inferred, values match RPMI of Table 2
HeLa = experiment: Cytotoxicity assay (XTT); assay type: cell-based, human; parameters: Toxicity HeLa: unit not given beside the values; conditions: for Toxicity HeLa: unit not given; for Toxicity HeLa (EC50), Peptide concentration: value printed in parentheses
Experimental: as §1

[2] = tested on: Staphylococcus aureus VRS-2 (VanA, VRSA); experiment: microbe, parasite or virus in culture; conditions: VRS-2 (VanA)
Experimental: The S. aureus strains ATCC 29213, ATCC 19636, ATCC 33591 (MRSA), BAA-1556 (MRSA USA 300) were obtained from the American Type Culture Collection (ATCC). […] The species identity was confirmed with 16S rRNA analysis.
as §2, §3, §4, §5

P. aeruginosa RP73 = experiment: Antibacterial activity assay (broth microdilution MIC); assay type: cell-based, Pseudomonas aeruginosa; conditions: in µg/mL; for MIC on initial panels: medium and unit not given; for MIC: untitled table, medium/unit not given
Experimental: Antibacterial activity assay.
Synergy experiments were performed following a checkerboard protocol.

[3] = tested on: Klebsiella pneumoniae NCTC 13368; assay type: cell-based; conditions: for MIC, Stability in serum (MH) / MIC on initial panels / MIC: in µg/mL; for MIC on initial panels: medium and unit not given
[4] = KP13368, Serum (10% fetal bovine serum)
[5] = KP13368, untitled table, medium/unit not given, values match RPMI of Table 2
[6] = Klebsiella pneumoniae KP13368, (MH)
[7] = Klebsiella pneumoniae KP13368, (RPMI)

MIC on initial panels [1]: 16
MIC [1]: 1 µg/mL (≈ 0.369 µM)
MIC on initial panels (P. aeruginosa RP73): 8-16
MIC (P. aeruginosa RP73): 16-32
MIC, Stability in serum (MH) ([3]; KP13368, No serum): 4
MIC, Stability in serum (MH) [3, 4]: 4
MIC on initial panels ([3]; KP13368): 4
MIC [3, 5]: 8-16
MIC [3, 6]: 4
MIC [3, 7]: 8-16
SMILES: CC(C)C[C@@H](NC(=O)[C@@H](Cc1ccc(O)cc1)NC(=O)[C@@H](Cc1c[nH]cn1)NC(=O)[C@H](NC(=O)[C@@H](CC(C)C)NC(=O)[C@@H](C)NC(=O)[C@@H](C)NC(=O)[C@@H](CCCCN)NC(=O)CNC(=O)[C@H](NC(=O)[C@@H](Cc1c[nH]cn1)NC(=O)[C@@H](CCCCN)NC(=O)CNC(=O)[C@H](NC(=O)[C@@H](Cc1c[nH]cn1)NC(=O)[C@@H](C)NC(=O)[C@@H](C)NC(=O)[C@@H](CCCCN)NC(=O)[C@@H](CCCCN)NC(=O)[C@@H](Cc1ccccc1)NC(=O)[C@@H](Cc1ccccc1)NC(=O)[C@@H](CO)NC(=O)CNC(=O)[C@@H](Cc1c[nH]c2ccccc12)NC(=O)CN)C(C)C)C(C)C)[C@H](C)O)C(N)=O [D-pleurocidin] (HELM PEPTIDE1{G.[dW].G.[dS].[dF].[dF].[dK].[dK].[dA].[dA].[dH].[dV].G.[dK].[dH].[dV].G.[dK].[dA].[dA].[dL].[dT].[dH].[dY].[dL].[am]}$$$$V2.0; N-terminus assumed)
Toxicity Calu-3 (EC50), Peptide concentration (Calu-3): (41.9 ± 1.8) μg/ml
Toxicity HEK293 (HEK293): 61.4 ± 3.9
Toxicity HEK293 (EC50), Peptide concentration (HEK293): (61.4 ± 3.9) μg/ml
Toxicity A549 (EC50), Peptide concentration (A549): (79.3 ± 7.2) μg/ml
Toxicity HeLa (HeLa): 47.1 ± 2.1
Toxicity HeLa (EC50), Peptide concentration (HeLa): (47.1 ± 2.1) μg/ml

MIC on initial panels [1]: 16
MIC [1]: 4 µg/mL (≈ 1.48 µM)
MIC, Stability in serum (MH) ([3]; KP13368, No serum): 4
MIC, Stability in serum (MH) [3, 4]: 8
MIC on initial panels ([3]; KP13368): 4-8
MIC [3, 5]: 32
MIC [3, 6]: 4-8
MIC [3, 7]: 32
MIC, Peptide concentration ([3]; NCTC 13368): 3 µg/mL (≈ 1.11 µM)
SMILES: CC(C)C[C@H](NC(=O)[C@H](Cc1ccc(O)cc1)NC(=O)[C@H](Cc1c[nH]cn1)NC(=O)[C@@H](NC(=O)[C@H](CC(C)C)NC(=O)[C@H](C)NC(=O)[C@H](C)NC(=O)[C@H](CCCCN)NC(=O)CNC(=O)[C@@H](NC(=O)[C@H](Cc1c[nH]cn1)NC(=O)[C@H](CCCCN)NC(=O)CNC(=O)[C@@H](NC(=O)[C@H](Cc1c[nH]cn1)NC(=O)[C@H](C)NC(=O)[C@H](C)NC(=O)[C@H](CCCCN)NC(=O)[C@H](CCCCN)NC(=O)[C@H](Cc1ccccc1)NC(=O)[C@H](Cc1ccccc1)NC(=O)[C@H](CO)NC(=O)CNC(=O)[C@H](Cc1c[nH]c2ccccc12)NC(=O)CN)C(C)C)C(C)C)[C@@H](C)O)C(N)=O [Pleurocidin, reference compound] (H-GWGSFFKKAAHVGKHVGKAALTHYL-NH2; N-terminus assumed)
Toxicity HEK293 (HEK293): 87.5 ± 11.1
Toxicity HEK293 (EC50), Peptide concentration (HEK293): (87.5 ± 11.1) μg/ml
Toxicity HeLa (HeLa): 58.2 ± 3.9
Toxicity HeLa (EC50), Peptide concentration (HeLa): (58.2 ± 3.9) μg/ml

MIC on initial panels [1]: 64-128
MIC [1]: > 32 µg/mL
MIC, Stability in serum (MH) ([3]; KP13368, No serum): 8
MIC, Stability in serum (MH) [3, 4]: 16
MIC on initial panels ([3]; KP13368): 4-8
MIC [3, 5]: 32
SMILES: CC(C)C[C@H](NC(=O)[C@H](Cc1ccc(O)cc1)NC(=O)[C@H](Cc1c[nH]cn1)NC(=O)[C@@H](NC(=O)[C@H](CC(C)C)NC(=O)[C@H](C)NC(=O)[C@H](C)NC(=O)[C@H](CCCCN)NC(=O)CNC(=O)[C@H](C)NC(=O)[C@H](Cc1c[nH]cn1)NC(=O)[C@H](CCCCN)NC(=O)CNC(=O)[C@H](C)NC(=O)[C@H](Cc1c[nH]cn1)NC(=O)[C@H](C)NC(=O)[C@H](C)NC(=O)[C@H](CCCCN)NC(=O)[C@H](CCCCN)NC(=O)[C@H](Cc1ccccc1)NC(=O)[C@H](Cc1ccccc1)NC(=O)[C@H](CO)NC(=O)CNC(=O)[C@H](Cc1c[nH]c2ccccc12)NC(=O)CN)[C@@H](C)O)C(N)=O [Pleurocidin-VA] (H-GWGSFFKKAAHAGKHAGKAALTHYL-NH2; N-terminus assumed)
Toxicity HEK293 (HEK293): ~400
Toxicity HEK293 (EC50), Peptide concentration (HEK293): (~400) μg/ml
Toxicity HeLa (HeLa): >400
Toxicity HeLa (EC50), Peptide concentration (HeLa): (>400) μg/ml

The remaining lines, values behind:

SMILES: CC(C)C[C@@H](NC(=O)[C@@H](Cc1ccc(O)cc1)NC(=O)[C@@H](Cc1c[nH]cn1)NC(=O)[C@H](NC(=O)[C@@H](CC(C)C)NC(=O)[C@@H](C)NC(=O)[C@@H](C)NC(=O)[C@@H](CCCNC(=N)N)NC(=O)CNC(=O)[C@H](NC(=O)[C@@H](Cc1c[nH]cn1)NC(=O)[C@@H](CCCNC(=N)N)NC(=O)CNC(=O)[C@H](NC(=O)[C@@H](Cc1c[nH]cn1)NC(=O)[C@@H](C)NC(=O)[C@@H](C)NC(=O)[C@@H](CCCNC(=N)N)NC(=O)[C@@H](CCCNC(=N)N)NC(=O)[C@@H](Cc1ccccc1)NC(=O)[C@@H](Cc1ccccc1)NC(=O)[C@@H](CO)NC(=O)CNC(=O)[C@@H](Cc1c[nH]c2ccccc12)NC(=O)CN)C(C)C)C(C)C)[C@H](C)O)C(N)=O [D-pleurocidin-KR] (HELM PEPTIDE1{G.[dW].G.[dS].[dF].[dF].[dR].[dR].[dA].[dA].[dH].[dV].G.[dR].[dH].[dV].G.[dR].[dA].[dA].[dL].[dT].[dH].[dY].[dL].[am]}$$$$V2.0; N-terminus assumed)
Toxicity Calu-3 (EC50), Peptide concentration (Calu-3): (39.1 ± 1.8) μg/ml
Toxicity HEK293 (HEK293): 36.4 ± 4.3
Toxicity HEK293 (EC50), Peptide concentration (HEK293): (36.4 ± 4.3) μg/ml
Toxicity A549 (EC50), Peptide concentration (A549): (56.5 ± 4.5) μg/ml
MIC against the five tested S. aureus strains (five S. aureus strains): 2 µg/mL (≈ 0.709 µM)
MIC on initial panels [1]: 4
MIC [1]: 1 µg/mL (≈ 0.354 µM)
Toxicity HeLa (HeLa): 25.3 ± 2.2
Toxicity HeLa (EC50), Peptide concentration (HeLa): (25.3 ± 2.2) μg/ml
MIC [2]: 2 µg/mL (≈ 0.709 µM)
MIC on initial panels (P. aeruginosa RP73): 16
MIC (P. aeruginosa RP73): 33
MIC, Stability in serum (MH) ([3]; KP13368, No serum): 2
MIC, Stability in serum (MH) [3, 4]: 1
MIC on initial panels ([3]; KP13368): 2
MIC [3, 5]: 4

SMILES: CC(C)C[C@H](NC(=O)[C@H](Cc1ccc(O)cc1)NC(=O)[C@H](Cc1c[nH]cn1)NC(=O)[C@@H](NC(=O)[C@H](CC(C)C)NC(=O)[C@H](C)NC(=O)[C@H](C)NC(=O)[C@H](CCCNC(=N)N)NC(=O)CNC(=O)[C@@H](NC(=O)[C@H](Cc1c[nH]cn1)NC(=O)[C@H](CCCNC(=N)N)NC(=O)CNC(=O)[C@@H](NC(=O)[C@H](Cc1c[nH]cn1)NC(=O)[C@H](C)NC(=O)[C@H](C)NC(=O)[C@H](CCCNC(=N)N)NC(=O)[C@H](CCCNC(=N)N)NC(=O)[C@H](Cc1ccccc1)NC(=O)[C@H](Cc1ccccc1)NC(=O)[C@H](CO)NC(=O)CNC(=O)[C@H](Cc1c[nH]c2ccccc12)NC(=O)CN)C(C)C)C(C)C)[C@@H](C)O)C(N)=O [Pleurocidin-KR] (H-GWGSFFRRAAHVGRHVGRAALTHYL-NH2; N-terminus assumed)
Toxicity HEK293 (HEK293): 40.1 ± 4.1
Toxicity HEK293 (EC50), Peptide concentration (HEK293): (40.1 ± 4.1) μg/ml
MIC on initial panels [1]: 4
MIC [1]: 8 µg/mL (≈ 2.83 µM)
Toxicity HeLa (HeLa): 30.7 ± 2.6
Toxicity HeLa (EC50), Peptide concentration (HeLa): (30.7 ± 2.6) μg/ml
MIC, Stability in serum (MH) ([3]; KP13368, No serum): 2
MIC, Stability in serum (MH) [3, 4]: 4
MIC on initial panels ([3]; KP13368): 2-4
MIC [3, 5]: 32
